# From patent US12202866B2, “Therapeutic nanoconjugates and uses thereof” (UNIVERSITAT AUTÒNOMA DE BARCELONA (UAB), priority 2017, dated 2025)
# Marks after values point to notes of the source that are not given here.
# Key:
# [1] = Nanoparticle size by dynamic light scattering; type: physicochemical
# Protocol: The volume and size distribution of the nanoparticles was determined by dynamic light scattering at 633 nm (Zetasizer Nano ZS, Malvern Instruments Limited, Malvern, Worcestershire, UK). Nanoconjugate size was also measured using purified samples, diluted to 0.2 mg/mL and contrasted by evaporation of 1 nm platinum layer in carbon-coated grids, before being visualized in a Hitachi H-7000 transmission electron microscope (TEM), as described33.
# SW1417 CRC cells = assay: MTT cytotoxicity in SW1417 CRC cells; type: cell-based, human; details: compared to free oligo-FdU, 72 h, 1.0-1,000 nM
# [2] = tested on: CXCR4^+ HeLa human cervical carcinoma cell line; assay: Internalization in CXCR4+ HeLa cells (flow cytometry, AMD3100 competition); type: cell-based; details: 1 hour exposure, 1 μM
# Protocol: To assess specificity for CXCR4 receptor mediated internalization, competition studies incubating CXCR4^+ HeLa cells with the CXCR4 antagonist AMD3100 (octahydrochloride hydrate, Sigma-Aldrich) were performed in a 1:10 (Protein:antagonist) molar ratio for 1 h before exposure to the nanoconjugate, as previously described for the T22-GFP-H6.
# Nuclei were labeled with Hoechst 33342 (Life Technologies) and plasma membranes CellMask™ Deep Red (Life Technologies).
# CXCR4^+ HeLa cells = assay: MTT cytotoxicity in CXCR4+ HeLa cells; type: cell-based, human; details: compared to free oligo-FdU
# Protocol: Afterwards, a graphic displaying the linearized T22-GFP-H6-FdU dose-response trend line representation to compare cell viability for both compounds was constructed. Reduction of cell viability was also determined by optical microscope images of HeLa cells exposed to 1 μM […] for 48 h, as compared to T22-GFP-H6 or free FdU.
# [3] = tested on: CXCR4^+ cancer cells in SC SW1417 CRC tumor; assay: CXCR4+ cancer cell fraction in tumor tissue along time after single dose (anti-CXCR4 IHC); type: in vivo, mouse
# Protocol: The SC SW1417 mouse model was used to determine the capacity of the nanoconjugate to induce DNA damage and apoptosis in tumor tissue, as well as the kinetics of CXCR4 expression in the membrane of tumor cells after treatment, regarding the fraction of CXCR4 expressing tumor cells and their intensity, since CXCR4^+ are the target cells for the nanoconjugate. […] The mice had been treated with equimolecular dosages of T22-GFP-H6, free oligo-FdU or Buffer, in which also were determined the levels of CXCR4 expression in tumor tissue at the different time points.
# [4] = tested on: CXCR4^+ SW1417 CRC metastases; assay: Prevention of metastasis protocol, SC+ORT CXCR4+ SW1417 CRC model; type: in vivo, NOD/SCID mice
# Protocol: Thus, a SC+ORT model, was produced: when SC tumors reached a volume of 700 mm3, mice were sacrificed by cervical dislocation and tumours were excised, discarding the necrotic areas. Three hundred mg of viable tumour tissue was then cut into pieces and disaggregated in a mix of 0.05% trypsin (Invitrogen) and 100 mg/ml DNase (Sigma-Aldrich). The mix was pipetted 30 times, using a 10 ml pipette, and incubated for 10 minutes at 37° C. with shaking. It was then re-pipetted 30 times, using 10 ml, 3 ml and 1 ml pipettes, and re-incubated for 5 minutes at 37° C. with shaking. This re-pipetting step was then repeated. The obtained SW1417 single-cell suspension was filtered through a cell strainer and centrifuged at 1,000 g for 10 minutes before counting the cells. Then 2×10^6 cells, […] resuspended in 50 μl of media, were microinjected in the cecum of each mouse, following the method described above.
# The SC+ORT metastatic CRC model developed in NOD/SCID mice was used to evaluate the capacity of the nanoconjugate for metastasis prevention.
# At necropsy, the number and size of visible metastases in the organs where dissemination is expected in colorectal cancer (lymph nodes, liver, lung and peritoneum) were recorded for each mouse in all compared groups. Also the number of metastatic foci that emitted bioluminiscence (derived from the SW1417-luci CRC cells) were counted ex vivo in the target organs for metastasis, using the IVIS® 200-Spectrum (Perkin-Elmer). Samples for histopathological and immunohistochemical analyses were collected and processed. Two independent observers analyzed H&E stained samples to count the number and measure the size of all observed metastatic foci in three (metastasis prevention experiment) or six (regression of metastasis experiment) sections of each organ in each mouse. The images were taken and the measurements were performed with an Olympus microscope with the CellD Olympus software (v3.3). […] The obtained results were used to study a possible correlation between CXCR4^+ CCF and antimetastatic effect at the different sites.
# In order to analyze differences between control and experimental groups of affected mice in metastatic rates at the different organs, Fisher's exact test was used. The Mann-Whitney test was used to compare number and size of metastatic foci in the affected organs among groups. All quantitative values were expressed as mean±SE and the statistical tests were performed using SPSS version 11.0 (IBM, New York, USA). Differences among groups was considered significant at a p<0.05.
# [5] = Biodistribution and toxicity in normal organs, bone marrow and circulating blood cells; type: in vivo, mouse
# Protocol: At necropsy, bone marrow was extracted and registered ex vivo in the IVIS® 200-Spectrum equipment. Mouse blood was collected by punction in the maxillary plexus. The erythrocytes, leucocytes and platelets were isolated by the Ficoll density gradient method using the standard protocol. Further, pellets were obtained by centrifugation of the isolated cell extracts at 600 g, 10 min and then recorded to measure fluorescence using IVIS® 200-Spectrum.
# In addition, two independent observers evaluated the possible histopathological alterations observed in H&E stained non-tumor tissue samples, searching for signs of toxicity.
# [6] = tested on: subcutaneous CXCR4^+ SW1417 CRC tumor; assay: Tumor uptake and tumor cell internalization in subcutaneous CXCR4+ SW1417 CRC model; parameters: tumor uptake measured by fluorescence emission: dose or concentration left out as unconfirmed
# Protocol: SC model was used to assess tumor uptake and nanoconjugate internalization and in vivo competition studies using co-administration of the CXCR4 antagonist AMD3100.
# Two hours, 5 h and 24 h after the administration, the mouse was euthanized to resect the tumor and register ex vivo the intensity of the green fluorescence emitted by the nanoconjugated that biodistributed to tumor tissue using the IVIS® 200-Spectrum (Perkin Elmer, MA, USA). Following, tumor tissue samples were taken, processed and performed immunohistochemistry (IHC) to determine the presence or absence of the corresponding nanoconjugate into cytosol of tumor cells using an anti-GFP antibody (1:300; Santa-Cruz Biotechnology, CA, USA). […] Apoptosis was assessed determining nuclear condensation with Hoechst staining of tumor tissue sections and counting the number of condensed or defragmented nuclei in five high-power magnification fields in different sections for each tumor using the Olympus DP73 digital camera and the CellD Imaging 3.3 programme (Olympus, Tokyo, Japan).
# [7] = Prevention protocol, 3 histology sections, mean + SE
# [8] = versus free oligo-FdU mice, histology, end of experiment
substance,measurement,setting,value
T22-GFP-H6-FdU: nanoconjugate of T22-GFP-H6 protein nanoparticle covalently bound via maleimide linker to thiol-functionalized pentameric floxuridine oligonucleotide (oligo-FdU),size determined by dynamic light scattering,"[1]; Example 2, unit not given",14.6+0.14
same,size (DLS),[1]; Example 3,14.66+0.14 nm
same,cytotoxicity measured by cell viability or phase-contrast microscopy,SW1417 CRC cells,significantly higher cytotoxicity than free oligo-FdU
same,internalization in HeLa cells,[2],CXCR4-dependent nanoconjugate internalization
same,cytotoxicity in HeLa cells,CXCR4^+ HeLa cells,higher cytotoxicity than free oligo-FdU
same,CXCR4^+ CCF remaining in tumor tissue,[3]; 24 h after single dose,reduced
same,CXCR4^+ CCF remaining in tumor tissue,[3]; 48 h after single dose,undetectable
same,"LN foci, mean foci number per mouse","[4]; Prevention protocol, 20 μg (or equimolecular) q3d x12 i.v., 3 histology sections, mean + SE",2.0 ± 0.4 ^a
same,"Liver foci, mean foci number per mouse",[4]; [7],"0.2 ± 0.1 ^b,c"
same,"Lung foci, mean foci number per mouse",[4]; [7],"1.3 ± 0.9 ^d,e"
same,"Peritoneal foci, mean foci number per mouse",[4]; [7],"0.4 ± 0.3 ^f,g"
same,reduction in the size of peritoneal foci,[4]; compared to free oligo-FdU,2.4 fold
same,Metastasis Liver [%],[4]; end of prevention experiment,[17]^a %
same,"Metastasis Liver, affected/total mice",[4]; end of prevention experiment,2/12
same,Metastasis Lung [%],[4]; end of prevention experiment,"[17]^b,c %"
same,"Metastasis Lung, affected/total mice",[4]; end of prevention experiment,2/12
same,Metastasis Lymph nodes [%],[4]; end of prevention experiment,[75] %
same,"Metastasis Lymph nodes, affected/total mice",[4]; end of prevention experiment,9/12
same,Metastasis Peritoneal [%],[4]; end of prevention experiment,[17]^d %
same,"Metastasis Peritoneal, affected/total mice",[4]; end of prevention experiment,2/12
same,metastasis development in liver and lung by ex vivo luminescence,[4]; end of prevention experiment,blocked metastasis development
same,"remaining CXCR4^+ CCF in liver, lung and peritoneal metastatic tissue (anti-CXCR4 IHC)",[4]; end of prevention experiment,higher reduction
same,prevention of LN metastases,"[4]; histology, end of experiment",did not prevent
same,"Metastasis Size, Liver",[4]; mean foci size,8.7 μm^2 × 10^−3
same,"Metastasis Size, Lung",[4]; mean foci size,15.1 μm^2 × 10^−3
same,"Metastasis Size, Lymph nodes",[4]; mean foci size,79.3 μm^2 × 10^−3
same,"Metastasis Size, Peritoneal",[4]; mean foci size,126.6 μm^2 × 10^−3
same,Primary tumor Positive/#Mice,[4]; mice bearing a primary tumor out of total mice per group,12/12
same,Primary tumor [%],[4]; percent of mice bearing a primary tumor,[100] %
same,primary tumor growth by in vivo bioluminescence emission,"[4]; prevention experiment, compared to buffer-treated mice",no significant inhibition
same,reduction in the total number of metastases in liver or lung,[4]; [8],3.1-3.7 times
same,reduction in the total number of metastases in the peritoneum,[4]; [8],10.3 fold
same,"fluorescence emission in erythrocytes, leucocytes or platelets",[5]; 5 h after doses in the 10-100 μg range,Lack of fluorescence emission
same,fluorescence emission in spleen or bone marrow,"[5]; 5 h after single injections, 10-100 μg range",Lack of fluorescence emission
same,level of DSBs in liver (anti-gH2AX IHC),[5]; 5 h after treatment,undetectable
same,apoptosis or histological alteration in bone marrow or liver,[5]; 24 h post-administration,not detected
same,mouse body weight,[5]; regression and prevention of metastases experiments,lack of mouse body weight loss
same,tumor uptake measured by fluorescence emission,"[6]; 5 h after injection, i.v.",selective tumor uptake
same,internalization into CXCR4^+ tumor cell cytosol by anti-GFP immunohistochemistry,[6]; single i.v. dose,internalized
